Where two headings read alike, the source gives them in different places.
What was measured:
Assay type in all cases: cell-based
ER [1] = target: T1, ER (Homo sapiens, UniProt P03372); experiment: Degradation activities on ER (Western blotting) in T47D breast cancer cells; settings: 24 h, Western blot
T1 construct: T47D breast cancer cells were subcultured in cell culture medium; endogenous in cells; host or cells: T47D breast cancer cells
T1 sequence (P03372 1-595): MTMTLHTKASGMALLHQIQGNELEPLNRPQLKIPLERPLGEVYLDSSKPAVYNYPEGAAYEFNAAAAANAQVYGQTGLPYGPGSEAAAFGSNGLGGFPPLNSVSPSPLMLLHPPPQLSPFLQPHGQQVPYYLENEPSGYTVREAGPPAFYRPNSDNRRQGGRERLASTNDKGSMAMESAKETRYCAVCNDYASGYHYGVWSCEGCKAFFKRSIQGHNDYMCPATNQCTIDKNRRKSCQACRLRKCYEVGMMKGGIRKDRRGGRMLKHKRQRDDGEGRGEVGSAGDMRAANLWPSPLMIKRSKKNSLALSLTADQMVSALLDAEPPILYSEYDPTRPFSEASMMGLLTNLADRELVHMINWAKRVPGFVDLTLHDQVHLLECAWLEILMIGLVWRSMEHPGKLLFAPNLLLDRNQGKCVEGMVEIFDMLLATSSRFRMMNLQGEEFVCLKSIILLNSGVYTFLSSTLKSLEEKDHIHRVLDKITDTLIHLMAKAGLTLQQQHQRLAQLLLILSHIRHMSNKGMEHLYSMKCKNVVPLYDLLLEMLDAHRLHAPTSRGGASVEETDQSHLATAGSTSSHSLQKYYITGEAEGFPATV
Description: T47D breast cancer cells were subcultured in cell culture medium, and the cells in good growth condition were seeded into 6-well plate at 2 mL/well, with 2.5×10^5 cells per well. The cells were incubated overnight in a 37° C. incubator under 5% CO2. The drug was prepared into 10 mM stock solution with dimethyl sulfoxide (DMSO). Prior to use, the stock solution was diluted with DMSO in a ratio of 1:3. […] of the diluted compound was added to the cell culture wells (to ensure a DMSO concentration of 0.1% in the culture system), and each concentration was repeated twice. The plate were gently shaken to mix. Additionally, the negative control wells (containing equal amount of DMSO) and the positive control wells were set up. After 24 hours of culture, the cells were lysed with RIPA cell lysis buffer to extract proteins, and the protein concentration was measured using a BCA kit. The protein loading buffer (5×) was added, and the plate was heated at 100° C. for 5 min. Then, the sample was stored at −20° C. […] of protein collected from each well was loaded onto a polyacrylamide gel for electrophoresis. The protein is transferred from the polyacrylamide gel to a PVDF membrane, blocked with 5% skim milk at room temperature for 1 h, and incubated overnight at 4° C. with primary antibodies Anti-ERα rabbit mAb (CST, Cat #: 8644S) and Anti-GAPDH rabbit mAb (CST, Cat #: 2118L). The membrane was washed three times with TBST solution, with 10 min for each time. The secondary antibody (horseradish peroxidase-labeled goat anti-rabbit IgG) was incubated at room temperature for 2 h, and then the membrane was washed three times with TBST solution, with 10 min for each time. Finally, ECL chromogenic solution was added for color development, and an automatic chemiluminescence instrument was used to take pictures. Images were collected and analyzed.
The degradation activities of the compounds according to the present invention towards ER, as tested by western blotting, are presented in Table 2

ER [2] = target: T1, ER; experiment: Degradation activities on ER (ELISA) in T47D breast cancer cells; settings: T47D cells, 24 h, ELISA; for DC50: concentration required to degrade 50% of the target protein; for Dmax: maximum percentage of target protein degraded
Method in brief: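 Cellular ER degradation ELISA: compound dosed 24 h on T47D cells (2.5×10^4/well, pre-grown 3 days) at six final levels from 100 nM downward. Remaining ER was detected by HRP-TMB absorbance at 450 nm. Dose-response fitting gave DC50 and Dmax, the maximal percentage degraded.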

[3] = test system: MCF-7 breast cancer cells; experiment: Inhibition of proliferation of MCF-7 breast cancer cells (agarose culture, CellTiter-Glo 3D); settings: MCF-7 cells, 15 days of cultivation, read-out: IC50

Percentage reduction of ER (ER [1]; compound concentration 10 nM) | DC50 (ER [2]) | Dmax (ER [2]; read-out: Dmax) | IC50 ([3]; Homo sapiens, MCF7, 360 h) | Percentage reduction of ER (ER [1]; compound concentration 1 nM) | Dmax (ER [2]) | IC50 [3] | Molecule
47% | < 10 nM | 50 to 75% | < 10 nM | – | – | – | O=C1CCC(N2Cc3cc(N4CC5(CCN(CC6CCN(c7ccc([C@@H]8c9ccc(O)cc9OC[C@@H]8c8ccccc8)cc7F)CC6)CC5)C4)ccc3C2=O)C(=O)N1 (stereo partly drawn) [Example 88, 3-(5-(7-((1-(2-fluoro-4-(cis-7-hydroxyl-3-phenylchroman-4-yl)phenyl)piperidin-4-yl)methyl)-2,7-diazaspiro[3.5]nonane-2-yl)-1-oxoisoinodolin-2-yl)piperidin-2,6-dione]
– | < 10 nM | 50 to 75% | < 10 nM | 56% | – | – | O=C1CCC(N2Cc3cc(N4CC5CN(CC6CCN(c7ccc([C@@H]8c9ccc(O)cc9CC[C@@H]8c8ccccc8)cc7)CC6)CC5C4)ccc3C2=O)C(=O)N1 (stereo partly drawn) [Example 26, 3-(5-(5-((1-(4-((1R,2S)-6-hydroxyl-2-phenyl-1,2,3,4-tetrahydronaphthalen-1-yl)phenyl)piperidin-4-yl)methyl)hexahydropyrrolo[3,4-c]pyrrole-2(1H)-yl)-1-oxoisoinodolin-2-yl)piperidin-2,6-dione]
– | – | – | 11 to 50 nM | 47% | – | – | O=C1CCC(N2Cc3cc(N4CCC5(CCN(CC6CCN(c7ccc([C@@H]8c9ccc(O)cc9OC[C@@H]8c8ccccc8)cc7)CC6)C5)C4)ccc3C2=O)C(=O)N1 (stereo partly drawn) [Example 8, 3-(5-(7-((1-(4-((3S,4R)-7-hydroxyl-3-phenyltryptophane-4-yl)phenyl)piperidin-4-yl)methyl)-2,7-diazaspiro[4.4]nonane-2-yl)-1-oxoisoinodolin-2-yl)piperidin-2,6-dione]

Second part, the molecule before the results:

Molecule | Percentage reduction of ER (ER [1]; compound concentration 10 nM) | DC50 (ER [2]) | Dmax (ER [2]; read-out: Dmax) | IC50 ([3]; Homo sapiens, MCF7, 360 h) | Percentage reduction of ER (ER [1]; compound concentration 1 nM) | Dmax (ER [2]) | IC50 [3]
O=C1CCC(N2Cc3cc(N4CCC(CN5CC6(CCN(c7ccc([C@@H]8c9ccc(O)cc9CC[C@@H]8c8ccccc8)cc7)CC6)C5)CC4)ccc3C2=O)C(=O)N1 (stereo partly shown) [Example 11] | 84% | < 10 nM | 50 to 75% | < 10 nM | – | – | –
3-(5-(7-((1-(2,6-difluoro-4-((3,4-cis)-3-(2-fluorophenyl)-7-hydroxychroman-4-yl)phenyl)piperidin-4-yl)methyl)-2,7-diazaspiro[3.5]nonane-2-yl)-1-oxoisoinodolin-2-yl)piperidin-2,6-dione [Example 33] | – | < 10 nM | – | – | 53% | B (B: 75-50%) | < 10 nM
O=C1CCC(N2Cc3cc(N4CC5(CCN(CC6CCN(c7ccc([C@@H]8c9ccc(O)cc9OC[C@@H]8c8ccccc8)cc7)CC6)CC5)C4)ccc3C2=O)C(=O)N1 (stereo partly drawn) [Example 79, 3-(5-(7-((1-(4-((3S,4R)-7-hydroxyl-3-phenylchroman-4-yl)phenyl)piperidin-4-yl)methyl)-2,7-diazaspiro[3.5]nonane-2-yl)-1-oxoisoinodolin-2-yl)piperidin-2,6-dione] | – | < 10 nM | 50 to 75% | < 10 nM | 70% | – | –
O=C1CCC(N2Cc3cc(N4CC5CN(CC6CCN(c7ccc([C@@H]8c9ccc(O)cc9OC[C@@H]8c8ccccc8)cc7)CC6)CC5C4)ccc3C2=O)C(=O)N1 (stereo partly drawn) [Example 83, 3-(5-(5-((1-(4-((3S, 4R)-7-hydroxyl-3-phenylchroman-4-yl)phenyl)piperidin-4-yl)methyl)hexahydropyrrolo[3,4-c]pyrrole-2(1H)-yl)-1-oxoisoinodolin-2-yl)piperidin-2,6-dione] | – | – | – | < 10 nM | 87% | – | –
O=C1CCC(N2Cc3cc(N4CCC5(CC4)CN(CC4CCN(c6ccc([C@@H]7c8ccc(O)cc8OC[C@@H]7c7ccccc7)cc6)CC4)C5)ccc3C2=O)C(=O)N1 (stereo partly drawn) [Example 58, 3-(5-(2-((1-(4-((3S,4R)-7-hydroxyl-3-phenyl-chroman-4-yl)phenyl)piperidin-4-yl)methyl)-2,7-diazaspiro[3.5]nonan-7-yl)-1-oxoisoinodolin-2-yl)piperidin-2,6-dione] | – | – | – | < 10 nM | 76% | – | –
O=C1CCC(N2Cc3cc(N4CC5(CCN(CC6CCN(c7ccc([C@@H]8c9ccc(O)cc9CC[C@@H]8c8ccccc8)cc7)CC6)CC5)C4)ccc3C2=O)C(=O)N1 (stereo partly shown) [Example 4] | 74% | – | – | 11 to 50 nM | – | – | –
